In ChEMBL document CHEMBL6096738, “Optimization of Single Relaxin B-Chain Peptide Leads to the Identification of R2R01, a Potent, Long-Acting RXFP1 Agonist for Cardiovascular and Renal Diseases” (J Med Chem, 2025):
Starred links: 1 amine or outer side, 2 acyl side, 3 side chain; linkers in the order of their positions; H or OH if unused. Non-standard residues stand in square brackets, D forms with d. Residues, ends and D or L forms follow the SMILES beside them. Groups on a side chain read outwards from the residue. *: point of attachment. X2 = CCCCCCCCCCCCCCCC(=O)N[C@@H](CCC(=O)N[C@@H](CCC(=O)N[C@@H](CCC(=O)NCCCOCCOCCOCCCNC(=O)CCC(=O)NCCCOCCOCCOCCCNC(=O)CCC(=O)NCCCOCCOCCOCCCN*)C(=O)O)C(=O)O)C(=O)O; X1 = CCCCCCCCCCCCCCCC(=O)N[C@@H](CCC(=O)N[C@@H](CCC(=O)N[C@@H](CCC(=O)NCCCOCCOCCOCCCNC(=O)CCC(=O)NCCCOCCOCCOCCCN*)C(=O)O)C(=O)O)C(=O)O; γGlu = O=C(O)[C@H](CCC(=O)[*:2])N[*:1]; Stearoyl = CCCCCCCCCCCCCCCCCC(=O)*; Suc = O=C(CCC(=O)[*:2])[*:1]; αMeK = C[C@](N)(CCCCN)C(=O)O; Nle = CCCC[C@H](N)C(=O)O; AEEA = NCCOCCOCC(=O)O; Aib = CC(C)(N)C(=O)O

Tests used:
[1] = molecular target: T1, Relaxin receptor 1 (Homo sapiens, UniProt Q9HBX9); assay: Agonist activity at human RXFP1 expressed in 2%HSA treated human OVCAR-5 cells assessed as intracellular cAMP accumulation incubated for 30 mins with 2% HSA pretreated compound by HTRF assay; format: functional, cell-based
T1 sequence (Q9HBX9 whole entry): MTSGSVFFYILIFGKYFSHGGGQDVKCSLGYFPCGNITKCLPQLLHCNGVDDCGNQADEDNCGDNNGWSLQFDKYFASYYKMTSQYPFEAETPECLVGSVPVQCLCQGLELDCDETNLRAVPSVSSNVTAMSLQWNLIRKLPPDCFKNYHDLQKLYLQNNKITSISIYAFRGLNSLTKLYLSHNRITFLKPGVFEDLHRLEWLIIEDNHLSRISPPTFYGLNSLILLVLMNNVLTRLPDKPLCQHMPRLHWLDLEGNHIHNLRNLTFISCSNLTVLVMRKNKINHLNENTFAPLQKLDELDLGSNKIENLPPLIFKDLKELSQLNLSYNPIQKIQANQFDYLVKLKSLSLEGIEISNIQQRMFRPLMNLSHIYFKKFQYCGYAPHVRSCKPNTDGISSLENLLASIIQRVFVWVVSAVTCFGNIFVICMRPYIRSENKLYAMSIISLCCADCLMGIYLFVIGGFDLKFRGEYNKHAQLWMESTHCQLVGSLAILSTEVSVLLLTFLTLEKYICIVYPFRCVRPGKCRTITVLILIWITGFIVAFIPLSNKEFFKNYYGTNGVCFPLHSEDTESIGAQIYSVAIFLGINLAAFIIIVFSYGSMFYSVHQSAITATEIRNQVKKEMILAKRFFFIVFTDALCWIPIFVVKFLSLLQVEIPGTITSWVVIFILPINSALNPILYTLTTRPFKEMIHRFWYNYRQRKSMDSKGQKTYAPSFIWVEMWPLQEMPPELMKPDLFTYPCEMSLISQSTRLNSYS

[2] = molecular target: T2, Relaxin receptor 1 (Homo sapiens) (UniProt Q9HBX9); assay: Agonist activity at human RXFP1 expressed in 2%HSA treated human OVCAR-5 cells assessed as intracellular cAMP accumulation by measuring maximal efficacy incubated for 30 mins with 2% HSA pretreated compound by HTRF assay relative to control; format: functional, cell-based; details: filed as agonist
T2 sequence (whole entry): T1 sequence (Q9HBX9 whole entry)

[3] = Bioavailability in female Gottingen pig at 1 mg/kg, sc measured after 198 hrs by LC-HRMS analysis; format: ADME, organism-based, Sus scrofa; details: in vivo
[4] = Induction of mast cell degranulation in human LAD2 cells assessed as beta-hexosaminidase release by measuring maximal efficacy of 4-methylumbelliferyl N-acetyl-beta-D-glucosaminide hydrolysis at 33 uM incubated for 30 mins by plate reader analysis relative to control; format: toxicity, cell-based; details: probe 4-methylumbelliferyl N-acetyl-beta-D-glucosaminide
[5] = Drug metabolism in female Gottingen pig assessed as fatty acid chain oxidation mediated M+16 metabolite formation by measuring metabolite to parent compound AUC ratio at 1 mg/kg, iv measured after 198 hrs by LC-HRMS analysis; format: ADME, organism-based, Sus scrofa; details: in vivo
[6] = Induction of mast cell degranulation in human LAD2 cells assessed as beta-hexosaminidase release by measuring 4-methylumbelliferyl N-acetyl-beta-D-glucosaminide hydrolysis incubated for 30 mins by plate reader analysis; format: toxicity, cell-based; details: probe 4-methylumbelliferyl N-acetyl-beta-D-glucosaminide
[7] = Half-life in female Gottingen pig at 1 mg/kg, iv measured after 198 hrs by LC-HRMS analysis; format: ADME, organism-based, Sus scrofa; details: in vivo
[8] = Drug metabolism in male Sprague-Dawley rat assessed as fatty acid chain oxidation mediated M+16 metabolite formation by measuring metabolite to parent compound AUC ratio at 1 mg/kg, iv measured after 198 hrs by LC-HRMS analysis; format: ADME, organism-based; details: in vivo
[9] = Half-life in male Beagle dog at 1 mg/kg, iv measured after 198 hrs by LC-HRMS analysis; format: ADME, organism-based, Canis lupus familiaris; details: in vivo
[10] = Half-life in male Sprague-Dawley rat at 1 mg/kg, iv measured after 198 hrs by LC-HRMS analysis; format: ADME, organism-based; details: in vivo
[11] = molecular target: T2, Relaxin receptor 1 (Homo sapiens); assay: Agonist activity at human RXFP1 expressed in human OVCAR-5 cells assessed as intracellular cAMP accumulation by measuring maximal efficacy incubated for 30 mins by HTRF assay relative to control; format: functional, cell-based; details: filed as agonist
[12] = system: Rattus norvegicus; assay: Chronotropic effect in telemetered male Sprague-Dawley rat assessed as increase in heart rate administered subcutaneously and measured after 48 hrs; format: functional, organism-based; details: dose 0.1-1 mg/kg, route sc
[13] = system: Rattus norvegicus; assay: Chronotropic effect in pithed male Sprague-Dawley rat assessed as increase in heart rate at 0.3 mg/kg, iv measured after 60 mins relative to control; format: functional; details: 1 h
[14] = Drug metabolism in male Beagle dog assessed as fatty acid chain oxidation mediated M+16 metabolite formation by measuring metabolite to parent compound AUC ratio at 1 mg/kg, iv measured after 198 hrs by LC-HRMS analysis; format: ADME, organism-based, Canis lupus familiaris; details: in vivo
[15] = Bioavailability in male Sprague-Dawley rat at 3 mg/kg, sc measured after 198 hrs by LC-HRMS analysis; format: ADME, organism-based; details: in vivo
[16] = molecular target: T1, Relaxin receptor 1; assay: Agonist activity at human RXFP1 expressed in human OVCAR-5 cells assessed as intracellular cAMP accumulation incubated for 30 mins by HTRF assay; format: functional, cell-based
[17] = AUC (0 to 24 hrs) in male Sprague-Dawley rat at 1 mg/kg, iv measured after 198 hrs by LC-HRMS analysis; format: ADME, organism-based; details: in vivo
[18] = Cmax in male Sprague-Dawley rat at 3 mg/kg, sc measured after 198 hrs by LC-HRMS analysis; format: ADME, organism-based; details: in vivo
[19] = Drug metabolism in male Beagle dog assessed as fatty acid chain oxidation mediated M+16 metabolite formation by measuring metabolite to parent compound AUC ratio at 3 mg/kg, sc measured after 198 hrs by LC-HRMS analysis; format: ADME, organism-based, Canis lupus familiaris; details: in vivo
[20] = system: Rattus norvegicus; assay: Chronotropic effect in pithed male Sprague-Dawley rat assessed as increase in heart rate at 1 mg/kg, iv measured after 60 mins relative to control; format: functional
[21] = Drug metabolism in female Gottingen pig assessed as fatty acid chain oxidation mediated M+16 metabolite formation by measuring metabolite to parent compound AUC ratio at 1 mg/kg, sc measured after 198 hrs by LC-HRMS analysis; format: ADME, organism-based, Sus scrofa; details: in vivo
[22] = Induction of immune response in human CD4+ T cells assessed as increase in auto reactive T cells at 3 uM preincubated with monocyte-derived immature dendritic cells followed by T cell addition and further stimulated on day 7 and 14 with autologous dendritic cells and measured after 5 days post last stimulation by IFNgamma-Elispot analysis; format: toxicity, cell-based; details: 120 h
[23] = Drug metabolism in male Sprague-Dawley rat assessed as fatty acid chain oxidation mediated M+16 metabolite formation by measuring metabolite to parent compound AUC ratio at 3 mg/kg, sc measured after 198 hrs by LC-HRMS analysis; format: ADME, organism-based; details: in vivo

SMILES	EC50 [1] [nM]	Emax [2] [%]	bioavailability [3] [%]	Emax at 0.5 h, 33 µM [4] [%]	Ratio AUC [5]	EC50 at 30 min [6] [nM]	half-life [7] [h]	Ratio AUC [8]	half-life [9] [h]	half-life [10] [h]	Emax [11] [%]	Activity [13] [%]	Ratio AUC [14]	bioavailability [15] [%]	EC50 [16] [nM]	AUC(0-t) at 198 h [17] [µM·h]	Cmax [18] [nM]	also measured
CCCCCCCCCCCCCCCC(=O)N[C@@H](CCC(=O)N[C@@H](CCC(=O)N[C@@H](CCC(=O)NCCCOCCOCCOCCCNC(=O)CCC(=O)NCCCOCCOCCOCCCNC(=O)CCC(=O)NCCCOCCOCCOCCCNC(=O)CCC(=O)NCCCC[C@H](NC(=O)CNC(=O)[C@H](CCC(=O)O)NC(=O)C(C)(C)NC(=O)C(C)(C)NC(=O)[C@@H](NC(=O)[C@H](CCCCNC(C)=O)NC(=O)[C@H](C)NC(=O)[C@H](CCCNC(=N)N)NC(=O)[C@@H](NC(=O)[C@H](CCCCN)NC(=O)[C@H](CCC(=O)O)NC(=O)[C@H](CCCNC(=N)N)NC(=O)CNC(=O)[C@H](CCC(=O)O)NC(=O)[C@H](CC(C)C)NC(C)=O)C(C)C)[C@@H](C)CC)C(=O)N[C@@H](CO)C(=O)N[C@H](C(=O)N[C@@H](Cc1ccccc1)C(=O)N[C@@H](CO)C(=O)N[C@@](C)(CCCCN)C(=O)N[C@@H](CCCNC(=N)N)C(=O)N[C@@H](C)C(=O)N[C@@H](CCCCNC(C)=O)C(N)=O)[C@@H](C)O)C(=O)O)C(=O)O)C(=O)O (Ac-LEGREKVRAK(Ac)I[Aib][Aib]EGK([Suc-X2])STFS[αMeK]RAK(Ac)-NH2)	26.5	86	74	48	0.25	> 33000	22.3	< 0.01	8.8	7.8	97	40.3	0.11	–	–	–	–	Activity [12]: Dose-dependent-effect
CCCCCCCCCCCCCCCC(=O)N[C@@H](CCC(=O)N[C@@H](CCC(=O)N[C@@H](CCC(=O)NCCCOCCOCCOCCCNC(=O)CCC(=O)NCCCOCCOCCOCCCNC(=O)CCC(=O)NCCCC[C@H](NC(=O)CNC(=O)[C@H](CCC(=O)O)NC(=O)C(C)(C)NC(=O)C(C)(C)NC(=O)[C@@H](NC(=O)[C@H](CCCCNC(C)=O)NC(=O)[C@H](C)NC(=O)[C@H](CCCNC(=N)N)NC(=O)[C@@H](NC(=O)[C@H](CCCCN)NC(=O)[C@H](CCC(=O)O)NC(=O)[C@H](CCCNC(=N)N)NC(=O)CNC(=O)[C@H](CCC(=O)O)NC(=O)[C@H](CC(C)C)NC(C)=O)C(C)C)[C@@H](C)CC)C(=O)N[C@@H](CO)C(=O)N[C@H](C(=O)N[C@@H](Cc1c[nH]c2ccccc12)C(=O)N[C@@H](CO)C(=O)NC(C)(C)C(=O)N[C@@H](CCCNC(=N)N)C(=O)N[C@@H](CCCCN)C(=O)N[C@@H](CCCCNC(C)=O)C(N)=O)[C@@H](C)O)C(=O)O)C(=O)O)C(=O)O (Ac-LEGREKVRAK(Ac)I[Aib][Aib]EGK([Suc-X1])STWS[Aib]RKK(Ac)-NH2)	145	81	87	58	0.32	5500	27.2	–	9.2	8.7	95	31.4	0.33	69	1.28	19.5	2000	–
CCCCCCCCCCCCCCCCCC(=O)N[C@@H](CCC(=O)N[C@@H](CCC(=O)N[C@@H](CCC(=O)NCCOCCOCC(=O)NCCOCCOCC(=O)NCCOCCOCC(=O)NCCCC[C@H](NC(=O)[C@H](CCCCNC(C)=O)NC(=O)[C@H](CCCCN)NC(=O)[C@H](CCCNC(=N)N)NC(=O)C(C)(C)NC(=O)[C@H](CO)NC(=O)[C@H](Cc1c[nH]c2ccccc12)NC(=O)[C@@H](NC(=O)[C@H](CO)NC(=O)[C@H](CCCC)NC(=O)CNC(=O)[C@H](CCC(=O)O)NC(=O)C(C)(C)NC(=O)C(C)(C)NC(=O)[C@@H](NC(=O)[C@H](CCCCNC(C)=O)NC(=O)[C@H](C)NC(=O)[C@H](CCCNC(=N)N)NC(=O)[C@@H](NC(=O)[C@H](CCCCN)NC(=O)[C@H](CCC(=O)O)NC(=O)[C@H](CCCNC(=N)N)NC(=O)CNC(=O)[C@H](CCC(=O)O)NC(=O)[C@H](CC(C)C)NC(C)=O)C(C)C)[C@@H](C)CC)[C@@H](C)O)C(N)=O)C(=O)O)C(=O)O)C(=O)O (Ac-LEGREKVRAK(Ac)I[Aib][Aib]EG[Nle]STWS[Aib]RKK(Ac)K([AEEA-AEEA-AEEA-γGlu-γGlu-γGlu-Stearoyl])-NH2)	18.4	89	–	59.6	4	1260	7	< 0.1	3.4	3.9	84	–	19.4	74	0.2	9.4	1500	Ratio AUC [19]: 6.6; Activity [20]: 29%; Ratio AUC [21]: 4; Activity [22]: Non-toxic; Ratio AUC [23]: 0.104
